Laboratory results taken from article PMC3914206.

Tests used:
Type in all cases: binding
panel of 442 kinases [1] = molecular target: T1, panel of 442 kinases (Homo sapiens, UniProt P23443); details: kinase S6K1; compound concentration 10 µM
T1 construct: purchased KINOMEscan
Source text: (§1) We assessed the selectivity of members of this scaffold using the KINOMEscan methodology across a near comprehensive panel of 442 kinases [[18,27]].

panel of 442 kinases [2] = molecular target: T2, panel of 442 kinases (Homo sapiens, UniProt Q96SB4); details: kinase SRPK1; compound concentration 10 µM
T2 construct: purchased KINOMEscan
Source text: as §1

panel of 442 kinases [3] = molecular target: T3, panel of 442 kinases (Homo sapiens, UniProt Q9Y2H1); details: Compound Concentration 10 µM
T3 construct: purchased KINOMEscan
Source text: as §1

panel of 442 kinases [4] = molecular target: T4, panel of 442 kinases (Homo sapiens, UniProt P09769); details: Compound Concentration 10 µM
T4 construct: purchased KINOMEscan
Source text: as §1

T4 sequence (P09769 whole entry): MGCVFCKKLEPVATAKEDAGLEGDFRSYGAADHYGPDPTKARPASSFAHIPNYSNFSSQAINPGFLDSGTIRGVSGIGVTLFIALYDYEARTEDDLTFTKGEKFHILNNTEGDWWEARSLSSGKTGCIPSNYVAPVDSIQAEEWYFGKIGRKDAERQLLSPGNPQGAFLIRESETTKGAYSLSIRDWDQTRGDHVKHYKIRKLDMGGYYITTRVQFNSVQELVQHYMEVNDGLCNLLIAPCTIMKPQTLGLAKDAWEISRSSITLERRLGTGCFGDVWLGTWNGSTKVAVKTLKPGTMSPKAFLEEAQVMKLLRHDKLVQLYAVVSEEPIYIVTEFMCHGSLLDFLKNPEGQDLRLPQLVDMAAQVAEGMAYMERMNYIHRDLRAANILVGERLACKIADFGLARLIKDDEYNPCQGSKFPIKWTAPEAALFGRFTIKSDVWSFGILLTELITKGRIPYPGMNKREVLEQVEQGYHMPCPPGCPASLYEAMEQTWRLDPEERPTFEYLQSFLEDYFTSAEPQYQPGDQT
T3 sequence (Q9Y2H1 whole entry): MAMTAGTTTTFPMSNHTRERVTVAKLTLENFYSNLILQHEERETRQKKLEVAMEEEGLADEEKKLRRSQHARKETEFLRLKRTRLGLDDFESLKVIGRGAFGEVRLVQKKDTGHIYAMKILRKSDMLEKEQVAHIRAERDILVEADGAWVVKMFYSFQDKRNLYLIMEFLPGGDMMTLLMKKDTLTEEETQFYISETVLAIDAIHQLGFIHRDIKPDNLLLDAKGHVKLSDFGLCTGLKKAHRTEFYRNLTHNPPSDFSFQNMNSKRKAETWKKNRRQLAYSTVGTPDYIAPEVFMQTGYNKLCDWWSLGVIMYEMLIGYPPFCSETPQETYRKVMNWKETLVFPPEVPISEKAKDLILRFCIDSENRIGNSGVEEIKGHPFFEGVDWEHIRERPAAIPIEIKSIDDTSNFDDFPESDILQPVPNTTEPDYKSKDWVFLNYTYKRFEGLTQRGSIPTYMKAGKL
T1 sequence (P23443 whole entry): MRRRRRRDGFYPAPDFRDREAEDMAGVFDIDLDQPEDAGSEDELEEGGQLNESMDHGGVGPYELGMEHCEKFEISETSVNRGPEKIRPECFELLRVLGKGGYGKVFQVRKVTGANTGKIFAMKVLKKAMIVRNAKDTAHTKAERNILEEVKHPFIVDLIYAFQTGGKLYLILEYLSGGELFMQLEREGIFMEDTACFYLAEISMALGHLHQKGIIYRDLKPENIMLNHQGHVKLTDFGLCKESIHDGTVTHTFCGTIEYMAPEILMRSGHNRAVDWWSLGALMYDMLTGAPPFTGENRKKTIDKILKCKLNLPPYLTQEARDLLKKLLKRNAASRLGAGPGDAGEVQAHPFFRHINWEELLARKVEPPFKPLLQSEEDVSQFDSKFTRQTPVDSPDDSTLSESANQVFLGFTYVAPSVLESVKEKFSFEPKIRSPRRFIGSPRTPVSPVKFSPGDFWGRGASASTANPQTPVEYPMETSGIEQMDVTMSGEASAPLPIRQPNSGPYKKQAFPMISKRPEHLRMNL
T2 sequence (Q96SB4 whole entry): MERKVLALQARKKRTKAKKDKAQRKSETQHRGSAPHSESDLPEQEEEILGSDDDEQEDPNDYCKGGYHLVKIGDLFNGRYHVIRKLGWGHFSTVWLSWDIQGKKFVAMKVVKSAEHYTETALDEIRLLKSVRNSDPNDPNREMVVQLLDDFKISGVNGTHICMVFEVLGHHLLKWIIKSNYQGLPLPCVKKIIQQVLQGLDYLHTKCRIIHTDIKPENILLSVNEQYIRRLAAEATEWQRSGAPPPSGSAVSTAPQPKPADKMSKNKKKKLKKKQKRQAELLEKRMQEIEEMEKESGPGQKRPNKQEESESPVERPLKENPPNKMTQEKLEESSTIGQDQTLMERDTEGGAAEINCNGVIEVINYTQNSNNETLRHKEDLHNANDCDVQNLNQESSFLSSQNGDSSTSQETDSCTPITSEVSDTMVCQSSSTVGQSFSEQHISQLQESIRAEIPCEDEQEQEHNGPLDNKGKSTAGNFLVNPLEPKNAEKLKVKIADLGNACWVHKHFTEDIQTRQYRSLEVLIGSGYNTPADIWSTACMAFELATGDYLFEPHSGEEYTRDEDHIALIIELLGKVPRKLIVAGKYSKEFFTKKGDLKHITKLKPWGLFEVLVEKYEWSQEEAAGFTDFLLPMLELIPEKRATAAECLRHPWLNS

Compound	% Ctrl, S6K1 (panel of 442 kinases [1])	% Ctrl, SRPK1 (panel of 442 kinases [2])	KINOMEscan: NDR2 (panel of 442 kinases [3])	KINOMEscan: FGR (panel of 442 kinases [4])
COc1cc(C(=O)N2CCC(N3CCN(C)CC3)CC2)ccc1Nc1ncc2c(n1)N(C1CCCC1)c1ccccc1C(=O)N2C [Compound 25, 11-cyclopentyl-2-((2-methoxy-4-(4-(4-methylpiperazin-1-yl)piperidine-1-carbonyl)phenyl)amino)-5-methyl-5H-benzo[e]pyrimido[5,4-b][1,4]diazepin-6(11H)-one]	100 % Ctrl	90 % Ctrl	100	98
CCOc1cc(C(=O)N2CCC(N3CCN(C)CC3)CC2)ccc1Nc1ncc2c(n1)N(C1CCCC1)c1ccccc1C(=O)N2C [Compound 26]	100 % Ctrl	100 % Ctrl	100	99
COc1cc(C(=O)N2CCC(N3CCN(C)CC3)CC2)ccc1Nc1ncc2c(n1)N1CCc3cccc(c31)C(=O)N2C [Compound 24]	100 % Ctrl	74 % Ctrl	–	79
COc1cc(C(=O)N2CCC(N3CCN(C)CC3)CC2)ccc1Nc1ncc2c(n1)N(C)c1ccccc1C(=O)N2C [15 (LRRK2-IN-1)]	100 % Ctrl	94 % Ctrl	100	84
